# Laboratory results as given in PMC12136442, “Cholesterol metabolism and intrabacterial potassium homeostasis are intrinsically related in Mycobacterium tuberculosis” (PLOS Pathogens, 2025).
# Experiments:
# CeoB [1] = target: T1, CeoB (Mycobacterium tuberculosis, UniProt Q7D6R7)
# CeoB [2] = target: T1, CeoB; remark: listed apart in the source
# MceG = target: T2, MceG (Mycobacterium tuberculosis, UniProt P9WQL5)
# T2 construct: gene mkl
# T2 sequence (P9WQL5 whole entry): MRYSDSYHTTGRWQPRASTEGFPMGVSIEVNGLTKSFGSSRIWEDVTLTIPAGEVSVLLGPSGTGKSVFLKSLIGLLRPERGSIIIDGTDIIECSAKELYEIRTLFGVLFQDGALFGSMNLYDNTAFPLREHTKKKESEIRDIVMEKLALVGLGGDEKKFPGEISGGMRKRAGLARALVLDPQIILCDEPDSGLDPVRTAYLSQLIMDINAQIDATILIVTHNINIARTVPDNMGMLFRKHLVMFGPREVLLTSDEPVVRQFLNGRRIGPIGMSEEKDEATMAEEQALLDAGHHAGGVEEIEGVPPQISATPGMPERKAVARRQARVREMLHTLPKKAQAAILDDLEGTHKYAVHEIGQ
# T1 sequence (Q7D6R7 entry or part of it): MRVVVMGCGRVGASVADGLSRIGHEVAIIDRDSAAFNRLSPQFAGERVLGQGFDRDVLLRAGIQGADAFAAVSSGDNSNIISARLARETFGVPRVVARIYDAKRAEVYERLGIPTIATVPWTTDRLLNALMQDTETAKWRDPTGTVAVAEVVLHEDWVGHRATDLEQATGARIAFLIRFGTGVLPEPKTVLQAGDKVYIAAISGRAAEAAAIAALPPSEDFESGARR
structure (smiles),measurement,setting,value
"CC(C)[C@@H](C)/C=C/[C@@H](C)[C@H]1CC[C@H]2C3=CC=C4C[C@@H](O)CC[C@]4(C)C3=CC[C@]12C [dehydroergosterol, ergosta-5,7,9(11),22-tetraen-3β-ol]","DHE fluorescence increase (ex 338 nm, em 381 nm)",CeoB [1],incubation of CeoB with DHE resulted in significantly higher DHE fluorescence signal
CC(C)CCC[C@@H](C)[C@H]1CC[C@H]2[C@@H]3CC=C4C[C@@H](O)CC[C@]4(C)[C@H]3CC[C@]12C [cholesterol],band intensity at 65oC/50oC,CeoB [2],the presence of cholesterol resulted in an increase in CeoB thermostability
Nc1ncnc2c1ncn2[C@@H]1O[C@H](COP(=O)(O)OP(=O)(O)OP(=O)(O)O)[C@@H](O)[C@H]1O [ATP],ADP-Glo kinase assay (luminescence),MceG,purified MceG exhibited ATPase activity
